Assay: Taste evaluation by a panel of experienced tasters in Kikkoman low salt soy sauce
Conditions: 0.25 ppm dosed to Kikkoman low salt soy sauce (1 g salt/100 ml)
Description: Blanco Verdunde Kikkoman low Salt 1 g Salt/100 ml
The samples were evaluated by a panel of experienced tasters.

Row | SMILES | taste of the sample as agreed by the panel
1 | CCCCCCCC/C=C\CCCCCCCC(=O)NC(C)(C)C(=O)O [2-methyl-2-oleamidopropanoic acid, 2-methyl-2-oleamidopropanoic Acid] | cleaner, more upfront body, salty, less fermented, more upfront, more salty bitter and sweet, fermented
2 | CCCCCCCCCCCCCCCC(=O)NC(C)(C)C(=O)O [2-methyl-2-palmitamidopropanoic acid, 2-methyl-2-palmitamidopropanoic Acid] | strong salty, more upfront, fermented, slightly bitter and sweet
3 | CCCCCCCCCCCCCCCCCC(=O)NC(C)(C)C(=O)O [2-methyl-2-stearamidopropanoic acid, 2-methyl-2-stearamidopropanoic Acid] | salty upfront, no aftertaste expanding, bitter aftertaste not negative, more upfront salty, not as bitter and sweet, fermented

From patent US11122826B2, “Organic compounds” (GIVAUDAN S.A., priority 2013, dated 2021)
